According to patent US7183320B2, “Benzoylsulfonamides and sulfonylbenzamidines for use as antitumour agents” (Eli Lilly and Company, priority 2002, dated 2007):

Test system: MURINE COLON CARCINOMA-26
Experiment: Early stage murine colon carcinoma-26 (Table X)
Type: in vivo
Conditions: Balb/C female mice
Excerpt: Conventional Murine Tumor and Human Tumor Xenouraft Assays
Briefly, the murine tumor or human xenograph was implanted subcutaneously using either 12-gauge trocar implants or counted number of cells. The location for the trocar insertion is midway between the axillary and inguinal region along the side of the mouse. The trocar is slipped approximately ¾ of an inch subcutaneously up toward the axilla before discharging the tumor fragment, and pinching the skin as the trocar is removed., Alternatively, human tumor cells prepared from a […] of donor tumors (5×10^6 cells) were implanted subcutaneously in a hind-leg of a male or female nude mouse (Charles River). Either a test compound in vehicle or vehicle alone was administered by intravenous bolus injection (iv), intraperitoneal injection (ip), or oral gavage (po). Each treatment group, as well as a group of untreated control animals, consisted of five animals per group in each experiment. […] Body weights were taken as a general measure of toxicity. The subcutaneous tumor data were analyzed by determining the median tumor weight for each treatment group over the course of the experiment and calculating the tumor growth delay as the difference in days for the treatment versus the control tumors to reach a volume of either 500 or 1000 mm^3.
The parameters measured in each experiment are summarized in the following paragraphs. • Tumor Weight(mg)=(a×b^2)/2 where a=tumor length (mm) and b=tumor width (mm). • Tumor Growth Delay=T−C where T is the median time (days) required for the treatment group tumors to reach a predetermined size, and C is the median time (days) for the control group tumors to reach the same size. Tumor-free survivors are excluded from this calculation, and are tabulated separately (Tumor Free).
The median tumor weight of each group is determined (including zeros). The T/C value in percent is an indication of antitumor effectiveness.

[1] = total dose 1305 mg/kg: 145 mg/kg/injection IV on days 1, 3, 5, 7, 9, 13, 15, 17, and 19
[2] = total dose 1600 mg/kg: 100 mg/kg/injection IV BID on days 1, 3, 5, 7, 13, 15, 17, and 21
[3] = total dose 1740 mg/kg: 145 mg/kg/injection IV on days 1, 2, 3, 7, 8, 13, 14, 16, 18, and 20–22

## O=C(NS(=O)(=O)c1ccccc1)c1ccc(Cl)cc1Cl [Example 110, N-[2,4-dichlorobenzoyl]phenylsulfonamide]
[1]
  % BODY WT LOSS AT NADIR: +15%
  % T/C MASS: 28%
  ACTIVITY RATING: + (0.7–1.2)
  DRUG DEATHS: 0/5
  GROWTH DELAY: 6 days
  LOG KILL: 0.9
  TUMOR FREE AT DAY 31: 0/5
[2]
  % BODY WT LOSS AT NADIR: +15%
  % T/C MASS: 34%
  ACTIVITY RATING: +++ (2.0–2.8)
  DRUG DEATHS: 0/5
  GROWTH DELAY: 15 days
  LOG KILL: 2.2
  TUMOR FREE AT DAY 31: 0/5
[3]
  % BODY WT LOSS AT NADIR: +17%
  % T/C MASS: 34%
  ACTIVITY RATING: +++ (2.0–2.8)
  DRUG DEATHS: 0/5
  GROWTH DELAY: 14 days
  LOG KILL: 2.1
  TUMOR FREE AT DAY 31: 0/5
